Converted amounts (≈) assume the structure as drawn. “And” between values parts separate entries of the source, which are not always exact repeats. Identical values can stand only once. Like-named read-outs stand apart in the source and are kept apart here.
Columns and labels:
[1] = tested on: P. falciparum NF54 strain; assay: Antiplasmodial activity, parasite lactate dehydrogenase assay, NF54; format: cell-based, Plasmodium falciparum; conditions: parasite lactate dehydrogenase assay over 72 h, read-out: Pf IC50 ± SD NF54
[2] = target: PvPI4K (Plasmodium vivax, UniProt A5KB26); assay: biochemical; conditions: purified recombinant PvPI4K, 10 μM ATP, ADP-Glo; mean of N ≥ 2; read-out: PvPI4K IC50 ± SD
[3] = tested on: Chinese Hamster Ovary (CHO) cell line; assay: cells; format: cell-based; conditions: MTT assay over 48h, read-out: CHO IC50
[4] = tested on: multidrug-resistant strain, K1; assay: Antiplasmodial activity, parasite lactate dehydrogenase assay, K1; format: cell-based, Plasmodium falciparum; conditions: parasite lactate dehydrogenase assay over 72 h, read-out: Pf IC50 ± SD K1
[5] = Solubility, miniaturized shake flask method; conditions: aqueous solution
[6] = tested on: β-hematin (βH) formation; assay: NP-40 mediated cell-free β-hematin assay; conditions: read-out: β-hematin IC50; cell-free NP-40 detergent-mediated assay; n = 2
[7] = tested on: P. falciparum PI4K conditional knockdown line; assay: microbe, parasite or virus in culture; format: cell-based, Plasmodium falciparum
[8] = Plasmodium falciparum, NF54, 72 h
[9] = Plasmodium falciparum, K1, 72 h

Sequence of PvPI4K (A5KB26 entry or part of it): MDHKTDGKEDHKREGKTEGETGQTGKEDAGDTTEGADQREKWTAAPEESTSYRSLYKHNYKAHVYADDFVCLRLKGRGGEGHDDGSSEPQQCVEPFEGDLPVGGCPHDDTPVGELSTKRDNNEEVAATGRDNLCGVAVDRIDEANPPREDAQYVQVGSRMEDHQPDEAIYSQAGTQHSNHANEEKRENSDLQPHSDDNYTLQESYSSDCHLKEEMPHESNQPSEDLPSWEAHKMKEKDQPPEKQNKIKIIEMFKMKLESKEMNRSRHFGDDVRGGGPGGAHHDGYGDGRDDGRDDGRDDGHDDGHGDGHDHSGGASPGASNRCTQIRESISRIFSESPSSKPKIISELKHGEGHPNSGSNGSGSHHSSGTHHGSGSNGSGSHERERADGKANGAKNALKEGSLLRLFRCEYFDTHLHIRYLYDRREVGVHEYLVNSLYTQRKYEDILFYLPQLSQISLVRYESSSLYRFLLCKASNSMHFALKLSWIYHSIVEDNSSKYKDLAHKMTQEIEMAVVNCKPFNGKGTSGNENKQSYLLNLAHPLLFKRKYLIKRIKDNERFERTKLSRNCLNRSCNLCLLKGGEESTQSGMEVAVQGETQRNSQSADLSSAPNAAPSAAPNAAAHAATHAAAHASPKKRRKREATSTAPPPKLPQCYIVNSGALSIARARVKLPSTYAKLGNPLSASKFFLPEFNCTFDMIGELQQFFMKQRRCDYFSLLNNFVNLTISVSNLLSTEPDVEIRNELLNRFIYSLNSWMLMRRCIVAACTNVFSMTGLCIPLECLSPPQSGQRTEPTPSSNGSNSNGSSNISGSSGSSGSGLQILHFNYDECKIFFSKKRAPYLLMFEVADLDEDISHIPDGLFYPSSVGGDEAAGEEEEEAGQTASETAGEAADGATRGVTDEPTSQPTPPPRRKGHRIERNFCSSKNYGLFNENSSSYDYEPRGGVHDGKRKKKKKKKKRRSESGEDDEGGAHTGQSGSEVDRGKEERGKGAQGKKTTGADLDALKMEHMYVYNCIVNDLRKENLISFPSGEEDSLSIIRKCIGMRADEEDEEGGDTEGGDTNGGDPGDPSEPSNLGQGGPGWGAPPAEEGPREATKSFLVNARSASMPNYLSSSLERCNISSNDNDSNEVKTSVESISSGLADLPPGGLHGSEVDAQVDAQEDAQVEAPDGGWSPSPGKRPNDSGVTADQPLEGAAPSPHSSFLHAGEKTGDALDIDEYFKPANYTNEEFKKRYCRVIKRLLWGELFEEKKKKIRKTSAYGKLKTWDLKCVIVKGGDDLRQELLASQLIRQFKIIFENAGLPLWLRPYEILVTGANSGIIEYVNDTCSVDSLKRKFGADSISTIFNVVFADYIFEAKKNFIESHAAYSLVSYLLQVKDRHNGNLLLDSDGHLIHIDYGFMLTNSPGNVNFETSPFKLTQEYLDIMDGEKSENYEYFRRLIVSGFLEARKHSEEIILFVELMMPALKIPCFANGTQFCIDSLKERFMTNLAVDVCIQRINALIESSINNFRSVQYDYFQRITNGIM

Molecule	IC50 [2] [nM]	solubility at 20 h [5] [µM]	IC50 [1, 8] [nM]	IC50 [4, 9] [nM]	IC50 [6]	IC50 ([3]; Cricetulus griseus, CHO) [nM]	further results
(R)-6-(6-Methoxypyridin-3-yl)-N-(pyrrolidin-3-yl)-1,5-naphthyridin-4-amine [Compound 34]	111 ± 69	–	–	–	–	–	IC50 [1]: 225 ± 7 nM; IC50 [3]: 17000 nM; IC50 [4]: 667 ± 60 nM
OCCN1CCC(Nc2ccnc3ccc(-c4ccc(C(F)(F)F)nc4)nc23)CC1 [Compound 22, 2-[4-[[6-[6-(Trifluoromethyl)pyridin-3-yl]-1,5-naphthyridin-4-yl]amino]piperidin-1-yl]ethanol]	303 ± 74	145 (≈ 60.5 µg/mL)	253 ± 2	385 ± 41	–	–	–
FC(F)(F)c1ccc(-c2ccc3nccc(NC4CCCNC4)c3n2)cn1 (stereo not drawn) [Compound 12, N-Piperidin-3-yl-6-[6-(trifluoromethyl)pyridin-3-yl]-1,5-naphthyridin-4-amine]	276 ± 33	195 (≈ 72.8 µg/mL)	90 ± 1	–	66000 ± 1000 nM	43000	–
CN1CCC(Nc2cc(N)nc3ccc(-c4ccc(C(F)(F)F)nc4)nc23)CC1 [Compound 36, 4-N-(1-Methylpiperidin-4-yl)-6-[6-(trifluoromethyl)pyridin-3-yl]-1,5-naphthyridine-2,4-diamine]	9400 ± 849	180 (≈ 72.4 µg/mL)	40 ± 11	192 ± 7	35000 nM and < 60000 nM	26000	–
CNC(=O)c1ccc(-c2ccc3nccc(NC4CCN(C)CC4)c3n2)cn1 [Compound 33, N-Methyl-5-[8-[(1-methylpiperidin-4-yl)amino]-1,5-naphthyridin-2-yl]pyridine-2-carboxamide]	77 ± 48	–	400 ± 1	> 6000	131000 ± 6000 nM	25000	–
CN1CCC(Nc2ccnc3ccc(-c4cccnc4C(F)(F)F)nc23)CC1 [Compound 30, N-(1-Methylpiperidin-4-yl)-6-[2-(trifluoromethyl)pyridin-3-yl]-1,5-naphthyridin-4-amine]	170 ± 38	200 (≈ 77.5 µg/mL)	270 ± 96	300 ± 11	75000 ± 6000 nM	> 50000	–
CN1CCC(Nc2cc(=O)[nH]c3ccc(-c4ccc(C(F)(F)F)nc4)nc23)CC1 [Compound 37, 4-[(1-Methylpiperidin-4-yl)amino]-6-[6-(trifluoromethyl)pyridin-3-yl]-1H-1,5-naphthyridin-2-one]	> 10000	45 (≈ 18.2 µg/mL)	4200 ± 1000	–	–	–	–
CS(=O)(=O)c1ccc(-c2cnc(N)c(-c3ccc(C(F)(F)F)nc3)c2)cc1 [MMV390048, reference compound]	–	–	36	–	–	–	IC50 ([7]; Plasmodium falciparum, 72 h, read-out: ABS IC50 for PfPI4K cKD, N=1, +aTc, experiment N=1, +aTc (500 nM, control conditions), 72 hours): 31 nM; IC50 ([7]; Plasmodium falciparum, 72 h, read-out: ABS IC50 for PfPI4K cKD, N=1, no aTc, experiment N=1, no aTc (PI4K knockdown), 72 hours): 4 nM; IC50 ([7]; Plasmodium falciparum, 72 h, read-out: ABS IC50 for PfPI4K cKD, N=2, +aTc, experiment N=2, +aTc (500 nM, control conditions), 72 hours): 29 nM; IC50 ([7]; Plasmodium falciparum, 72 h, read-out: ABS IC50 for PfPI4K cKD, N=2, no aTc, experiment N=2, no aTc (PI4K knockdown), 72 hours): 4.31 nM; IC50 ([7]; Plasmodium falciparum, 72 h, read-out: ABS IC50 for PfPI4K cKD, N=3, +aTc, experiment N=3, +aTc (500 nM, control conditions), 72 hours): 25 nM; IC50 ([7]; Plasmodium falciparum, 72 h, read-out: ABS IC50 for PfPI4K cKD, N=3, no aTc, experiment N=3, no aTc (PI4K knockdown), 72 hours): 3.48 nM; IC50 ([7]; Plasmodium falciparum, read-out: ABS IC50 for PfPI4K cKD, Mean + SD, +aTc, mean of N=3, +aTc (control conditions)): 26 ± 3 nM; IC50 ([7]; Plasmodium falciparum, read-out: ABS IC50 for PfPI4K cKD, Mean + SD, no aTc, mean of N=3, no aTc (PI4K knockdown)): 3.7 ± 0.4 nM; IC50 ([7]; read-out: ABS IC50 for PfPI4K cKD, N=1, +aTc, experiment N=1, +aTc (500 nM, control conditions), 72 hours): 27 nM; IC50 ([7]; read-out: ABS IC50 for PfPI4K cKD, N=2, +aTc, experiment N=2, +aTc (500 nM, control conditions), 72 hours): 21 nM; IC50 ([7]; read-out: ABS IC50 for PfPI4K cKD, N=2, no aTc, experiment N=2, no aTc (PI4K knockdown), 72 hours): 3.39 nM; IC50 ([7]; read-out: ABS IC50 for PfPI4K cKD, N=3, +aTc, experiment N=3, +aTc (500 nM, control conditions), 72 hours): 23 nM; IC50 ([7]; read-out: ABS IC50 for PfPI4K cKD, N=3, no aTc, experiment N=3, no aTc (PI4K knockdown), 72 hours): 3.31 nM
CS(=O)(=O)c1cccc(-c2ccc3nccc(NC4CCCNC4)c3n2)c1 (stereo not drawn) [Compound 8, 6-(3-Methylsulfonylphenyl)-N-piperidin-3-yl-1,5-naphthyridin-4-amine]	151 ± 72	195 (≈ 74.6 µg/mL)	200 ± 2	–	> 500000 nM	33300	–
N[C@@H]1CCN(c2ccnc3ccc(-c4ccc(C(F)(F)F)nc4)nc23)C1 [Compound 13, (3R)-1-[6-[6-(Trifluoromethyl)pyridin-3-yl]-1,5-naphthyridin-4-yl]pyrrolidin-3-amine]	1200 ± 481	135 (≈ 48.5 µg/mL)	60 ± 8	110 ± 13	–	20000	–
NC1CCN(c2ccnc3ccc(-c4ccc(C(F)(F)F)nc4)nc23)CC1 [Compound 18, 1-[6-[6-(Trifluoromethyl)pyridin-3-yl]-1,5-naphthyridin-4-yl]piperidin-4-amine]	559 ± 30	160 (≈ 59.7 µg/mL)	420 ± 87	477 ± 34	137000 ± 4000 nM	> 50000	–

— PMC11247499, “2,8-Disubstituted-1,5-naphthyridines as Dual Inhibitors of Plasmodium falciparum Phosphatidylinositol-4-kinase and Hemozoin Formation with In Vivo Efficacy” (Journal of Medicinal Chemistry, 2024)
